The test system of data set [1] is cell viability without virus infection. Kind of data set: Cytotoxicity under the 229E CPE conditions without virus infection (CellTiter Glo). To be noted: read-out: 229E CC50.
For data set [2], the target named is 229E mPRO (Human coronavirus 229E (HCoV-229E), UniProt P0C6X1). Put plainly: 229E mPRO enzymatic assay. Type of data set: biochemical, Human Coronavirus (HCov) 229E.
Experimental: Compounds were assayed using standard methods to assess compound activity and IC50. […] The assay buffer contained 20 mM of Tris-HCl (pH 7.3), 100 mM of NaCl, 1 mM of EDTA, 5 mM of TCEP and 0.1% BSA.
The compounds were added to an assay plate.
IC50 values of compounds were calculated with the GraphPad Prism software using the nonlinear regression model of log(inhibitor) vs. response—Variable slope (four parameters). The inhibition activity was calculated using the formula below, IC50 values was calculated using the Inhibition % data. Inhibition %=[(Sample-Average ZPE)/(Average HPE-Average ZPE)]*100%^#
In data set [3] the test system is HCoV 229E. Put plainly: HCoV 229E cytopathic effect (CPE) assay. In kind it is cell-based, Human Coronavirus (HCov) 229E. To be noted: CellTiter Glo.
Experimental: The antiviral activity of compounds was calculated based on the protection of the virus-induced CPE at each concentration normalized by the virus control.
Reagents and instruments used in this assay include luminescent cell viability assay kit CellTiter Glo (Promega) and Microplate Reader Synergy2 (BioTek).
Cytopathic effect (CPE) was measured by CellTiter Glo following the manufacturer's manual. The antiviral activity of compounds was calculated based on the protection of the virus-induced CPE at each concentration normalized by the virus control.
The target of data set [4] is SARS-COV2 Mpro (Severe acute respiratory syndrome coronavirus 2 (2019-nCoV) (SARS-CoV-2), UniProt P0DTD1). Kind of data set: SARS-CoV2 Mpro enzymatic assay. In kind it is biochemical. The following applies: 25 nM Mpro, 25 μM substrate.

The CC50 is the concentration giving 50% cytotoxicity. As usually defined, the IC50 is the concentration at which inhibition is half-maximal. By EC50 is commonly meant the concentration at which the effect is half-maximal. Read a high EC50 as a need for much substance.

Structures are written as SMILES. Like-named read-outs stand apart in the source and are kept apart here.

Sequence of 229E mPRO (P0C6X1 2966-3267 limits assumed): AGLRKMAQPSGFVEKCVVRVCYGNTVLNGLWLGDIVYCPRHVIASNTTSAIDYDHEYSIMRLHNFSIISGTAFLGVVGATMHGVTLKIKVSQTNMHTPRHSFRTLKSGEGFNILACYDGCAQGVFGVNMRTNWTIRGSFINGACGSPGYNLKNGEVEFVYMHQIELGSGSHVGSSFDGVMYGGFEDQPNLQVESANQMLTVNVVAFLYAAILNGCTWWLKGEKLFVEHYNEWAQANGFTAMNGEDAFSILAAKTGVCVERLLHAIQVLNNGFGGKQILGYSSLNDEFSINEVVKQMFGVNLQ

With `CC(C)CC(NC(=O)c1nc2ncccc2[nH]1)C(=O)NC(C#N)CC1CCNC1=O` (single isomer, unassigned) [130 (Isomer 1)], the CC50 in data set [1] was above 30000 nM.

As to `COc1cccc2[nH]c(C(=O)N[C@@H](CC(C)C)C(=O)N[C@@H](C[C@@H]3CCNC3=O)C(C#N)N3CCCC3)cc12` (single isomer, unassigned) [331 (Isomer 2)], the IC50 in data set [2] (read-out: 229E mPRO IC50) was below 2000 nM.

Consider `COc1cccc2[nH]c(C(=O)N[C@@H](CC3CC3)C(=O)N[C@H](C#N)C[C@@H]3CCCNC3=O)cc12` (single isomer, unassigned) [491 (Isomer 1)], for which, in data set [2] (read-out: 229E mPRO IC50), the IC50 is below 2000 nM.

Molecule `COc1cccc2[nH]c(C(=O)N[C@H](CC3CC3)C(=O)N[C@H](C#N)C[C@@H]3CCCNC3=O)cc12` (single isomer, unassigned) [491A (Isomer 2)] gave an IC50 in data set [2] below 2000 nM.

On to `CCNC(C#N)[C@H](C[C@@H]1CCNC1=O)NC(=O)[C@H](CC(C)C)NC(=O)c1cc2c(OC)cccc2[nH]1` (single isomer, unassigned) [511 (Isomer 1)], for which the IC50 in data set [2] (read-out: 229E mPRO IC50) was below 2000 nM. The EC50 in data set [3] was below 2000 nM.

With `CCNC(C#N)[C@H](C[C@@H]1CCNC1=O)NC(=O)[C@H](CC(C)C)NC(=O)c1cc2c(OC)cccc2[nH]1` (single isomer, unassigned) [511 (Isomer 2)], the IC50 in data set [2] (read-out: 229E mPRO IC50) was below 2000 nM.

Turning to `N#C[C@H](C[C@@H]1CCCNC1=O)NC(=O)[C@H](CC1CC1)NC(=O)c1cc2cccc(Cl)c2[nH]1` (single isomer, unassigned) [639 (Isomer 1)], in data set [2] (read-out: 229E mPRO IC50), the IC50 was below 2000 nM. In data set [3], this molecule yielded an EC50 below 2000 nM.

Turning to `COc1cccc2[nH]c(C(=O)N3CC4(CCC4)CC3C(=O)N[C@H](C#N)C[C@@H]3CCCNC3=O)cc12` (single isomer, unassigned) [719 (Isomer 2)], the IC50 in data set [2] (read-out: 229E mPRO IC50) and in data set [4] was below 2000 nM each time. Moreover, in data set [3], the EC50 is below 2000 nM.

For `COc1cccc2[nH]c(C(=O)N[C@@H](CC(C)C)C(=O)N[C@H](C#N)Cc3cn(C)cn3)cc12` [Compound 227, N-[(1S)-1-[[(1S)-1-cyano-2-(1-methylimidazol-4-yl)ethyl]carbamoyl]-3-methyl-butyl]-4-methoxy-1H-indole-2-carboxamide], in data set [2] (read-out: 229E mPRO IC50), the IC50 was above 30000 nM.

`COc1cccc2[nH]c(C(=O)N[C@@H](CC(C)C)C(=O)N[C@@H](C[C@@H]3CCNC3=O)C(C#N)Nc3ccccc3)cc12` (some centres unmarked) [Compound 327]: the IC50 in data set [2] (read-out: 229E mPRO IC50) and in data set [4] was below 2000 nM throughout.

As for `CCCOc1cccc2[nH]c(C(=O)N[C@@H](CC(C)C)C(=O)N[C@H](C#N)C[C@@H]3CCNC3=O)cc12` [Compound 379], in data set [2] (read-out: 229E mPRO IC50), the IC50 was below 2000 nM. The molecule also showed an EC50 in data set [3] below 2000 nM.

Turning to `COc1cccc2[nH]c(C(=O)N3C[C@H](OC)C[C@H]3C(=O)N[C@H](C#N)C[C@@H]3CCNC3=O)cc12` [Compound 407], the IC50 in data set [2] (read-out: 229E mPRO IC50) is below 2000 nM. The EC50 in data set [3] was below 2000 nM.

For `COc1cccc2[nH]c(C(=O)N[C@@H](CC(C)C)C(=O)N[C@@H](C[C@@H]3CCNC3=O)C(C#N)NCC(=O)O)cc12` (some centres unmarked) [Compound 653], the EC50 in data set [3] was below 2000 nM.

Consider `N#C[C@H](C[C@@H]1CCNC1=O)NC(=O)[C@H](CC1CC1)NC(=O)c1cc2c([nH]1)CCCC2` [Compound 711], for which the EC50 in data set [3] was below 2000 nM.

Molecule `N#C[C@H](C[C@@H]1CCCNC1=O)NC(=O)[C@H](CC1CC1)NC(=O)c1cc2c(Cl)nccc2[nH]1` [Compound 715] had an EC50 in data set [3] below 2000 nM.

In turn, `N#C[C@H](C[C@@H]1CCCNC1=O)NC(=O)[C@H](CC1CC1)NC(=O)c1cc2cc(Cl)ncc2[nH]1` [Compound 717] yielded an EC50 in data set [3] below 2000 nM.

`CC(C)(C)C[C@H](NC(=O)c1cc2cccc(Cl)c2[nH]1)C(=O)N[C@H](C#N)C[C@@H]1CCCNC1=O` [Compound 721, 7-chloro-N—((S)-1-(((S)-1-cyano-2-((S)-2-oxopiperidin-3-yl)ethyl)amino)-4,4-dimethyl-1-oxopentan-2-yl)-1H-indole-2-carboxamide] displayed an EC50 in data set [3] below 2000 nM.

`CC(C)(C)C[C@H](NC(=O)c1cc2ccc(Cl)c(Cl)c2[nH]1)C(=O)N[C@H](C#N)C[C@@H]1CCCNC1=O` [Compound 725] gave an EC50 in data set [3] below 2000 nM.

Turning to `CC(C)(C)C[C@H](NC(=O)c1cc2c(Cl)ccc(Cl)c2[nH]1)C(=O)N[C@H](C#N)C[C@@H]1CCCNC1=O` [Compound 735], the EC50 in data set [3] was below 2000 nM.

As to `COc1ccc(Cl)c2[nH]c(C(=O)N[C@@H](CC(C)(C)C)C(=O)N[C@H](C#N)C[C@@H]3CCCNC3=O)cc12` [Compound 737], the EC50 in data set [3] was below 2000 nM.

Turning to `COc1c(Cl)ccc2[nH]c(C(=O)N[C@@H](CC(C)(C)C)C(=O)N[C@H](C#N)C[C@@H]3CCCNC3=O)cc12` [Compound 739], in data set [3], the EC50 is below 2000 nM.

Regarding `CC(C)(C)C[C@H](NC(=O)c1cc2ccc(Cl)cc2[nH]1)C(=O)N[C@H](C#N)C[C@@H]1CCCNC1=O` [Compound 745], the EC50 in data set [3] is below 2000 nM.

The values above are taken from patent US11312704B2, “Inhibitors of cysteine proteases and methods of use thereof” (priority 2020, dated 2022).
